Measured values: US9616047B2, “Inhibitors of beta-catenin in treatment of colorectal cancer” (Regents of the University of Minnesota, priority 2014, dated 2017)

Key:
HT-29 colon cancer cells = experiment: Soft agar assay, anchorage-independent growth, HT29; format: cell-based
Method: (§1) FIG. 2. […] HCT116 and HT-29 colon cancer cells. Colony formation of two cell lines were inhibited by treatment of β-catenin inhibitor candidates. Cells (8×10^3/ml) were incubated with or without HI-B5 or HI-B9 compounds in 1 mL of 0.33% BME agar containing 10% FBS or in 3.5 mL of 0.5% BME agar containing 10% FBS. The cultures were maintained at 37° C. in a 5% CO2 incubator for 7 days, after which the cell colonies were counted under a microscope.
(§2) Cells (8×10^3 per well) suspended in Basal Medium Eagle (BME) supplemented with 10% FBS were added to 0.3% agar with different doses of chemicals in a top layer over a basal layer of 0.6% agar. The cultures were maintained at 37° C. in a 5% CO2 incubator for 2 wk and then colonies were counted under a microscope using the Image-Pro Plus Software (v.4) program (Media Cybernetics).

SW480 = experiment: Soft agar assay, anchorage-independent growth, SW480; format: cell-based
Method: (§3) (B) HI-B16 inhibited anchorage-independent growth of colon cancer cells. HCT116, HT29, DLD1 and SW480 were incubated in agar plate with or without HI-B16 and HI-B9. In every case, HI-B16 was better than HI-B9 treatment.
as §2

[1] = target: T1, human β-catenin (126-781 amino acid residues) (Homo sapiens, UniProt P35222); experiment: In vitro binding assay with purified β-catenin and compound-conjugated sepharose 4B bead
T1 construct: human β-catenin (126-781 amino acid residues)
T1 sequence (P35222 126-781): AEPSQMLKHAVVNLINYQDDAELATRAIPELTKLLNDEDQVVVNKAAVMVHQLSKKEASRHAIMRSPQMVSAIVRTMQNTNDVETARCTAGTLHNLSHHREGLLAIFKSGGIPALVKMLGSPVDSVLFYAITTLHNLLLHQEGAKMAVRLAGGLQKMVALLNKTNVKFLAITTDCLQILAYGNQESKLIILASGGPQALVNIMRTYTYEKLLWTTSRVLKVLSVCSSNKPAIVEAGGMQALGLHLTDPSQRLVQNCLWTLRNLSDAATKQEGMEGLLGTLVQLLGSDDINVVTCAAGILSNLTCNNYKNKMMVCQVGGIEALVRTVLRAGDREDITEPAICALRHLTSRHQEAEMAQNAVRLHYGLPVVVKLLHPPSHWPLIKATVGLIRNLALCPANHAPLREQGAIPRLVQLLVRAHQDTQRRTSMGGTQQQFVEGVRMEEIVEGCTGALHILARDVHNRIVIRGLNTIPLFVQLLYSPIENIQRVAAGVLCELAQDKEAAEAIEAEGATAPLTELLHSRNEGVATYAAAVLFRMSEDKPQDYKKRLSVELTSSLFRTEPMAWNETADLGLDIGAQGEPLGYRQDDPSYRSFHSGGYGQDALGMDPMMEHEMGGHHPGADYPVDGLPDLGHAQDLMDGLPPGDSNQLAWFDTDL
Method: FIGS. 7A-C. […] 2% of input from each experiments were used to show equal amount of incubated protein (purified or total cell lysates).
Based on the structure of the active compound HI-B9, additional analogs HI-B12, 13, 16, 17 and 20 (FIG. 5) were de novo designed and synthesized. […] 2% of input from each experiments were used to show equal amount of incubated protein (purified or total cell lysates).

c-Myc and cyclin D1 = experiment: Western blot analysis of β-catenin/Tcf-4 targets; format: cell-based
Method: Proteins from cell lysates were prepared, separated by SDS-PAGE and transferred to Immobilon-P membranes (Millipore Corporation, Billerica, Mass.). Membranes were blocked with 5% nonfat dry milk for 1 h at room temperature and incubated with each of the primary and secondary antibodies. The signal was detected with a chemiluminescence reagent (Amersham).

β-catenin = experiment: Ex vivo pull-down with compound-conjugated Sepharose 4B beads and colon cancer cell lysate: β-catenin; format: binding; conditions: colon cancer cell lysates; compound-conjugated Sepharose 4B beads
Method: Protein extracts (500 μg) of colon cancer cells were mixed with Sepharose-4B beads (as a negative control) or chemical-conjugated Sepharose 4B beads (100 μl) in reaction buffer. After being washed five times with buffer, the proteins were visualized by Western blot analysis.

[2] = test system: HCT116 colon cancer cells; experiment: Soft agar assay, anchorage-independent growth, HCT116; format: cell-based
Method: as §1, §2

[3] = test system: β-catenin/Tcf-4 luciferase activity; experiment: β-catenin/Tcf-4 luciferase assay of HI-B9 derivatives (cell line not stated); format: cell-based; conditions: FIG. 6A
Method: as §3
Transient transfection was performed using jetPEI and assays to detect firefly luciferase and Renilla activities according to the manufacturer's manual (Promega). Briefly, cells were seeded onto 10-cm plates and co-transfected with 400 ng of the Renilla luciferase internal control gene and 4 μg of the TOP-flash luciferase reporter construct containing three tandem Tcf consensus binding sites upstream of luciferase cDNA, or the FOPflash luciferase reporter construct, a plasmid with mutated Tcf binding sites. After 16 h of transfection, cells were trypsinized and seeded onto 48-well plates, and cells were treated with respective chemicals for 24 h. Luciferase and Renilla activities were measured using their substrates.

colon cancer cells = experiment: Proliferation and anchorage-independent growth of colon cancer cells (statements over several lines); format: cell-based; conditions: every cell line tested: HCT116, HT29, DLD1 and SW480
Method: as §2

DLD1 = experiment: Soft agar assay, anchorage-independent growth, DLD1; format: cell-based
Method: as §3, §2

- binding of purified β-catenin to compound-conjugated bead (in vitro) [1]: bound
Structure (SMILES): O=C(CC1(O)C(=O)Nc2ccc(F)cc21)c1ccc(O)c(C23CC4CC(CC(C4)C2)C3)c1 (centres unmarked) [HI-B16]
- anchorage-independent growth (colony formation in soft agar) (HT-29 colon cancer cells): inhibit anchorage-independent growth
- anchorage-independent growth (colony formation in soft agar) (SW480): inhibit anchorage-independent growth
- protein expression of c-Myc and cyclin D1 (c-Myc and cyclin D1): inhibited cyclin D1 and c-myc expression
- β-catenin and Tcf-4 expression level (c-Myc and cyclin D1): not affected
- binding to β-catenin (ex vivo pull-down) (β-catenin): resulted in HI-B16/β-catenin binding
- anchorage-independent growth (colony formation in soft agar) [2]: inhibit anchorage-independent growth
- inhibitory effect in β-catenin/Tcf-4 luciferase assay compared with HI-B9 [3]: exerted inhibitory effects better than HI-B9
- inhibition of luciferase activity ([3]; concentration not given): ~90%
- inhibition of anchorage-independent growth compared with HI-B9 treatment (colon cancer cells): more effective than HI-B9
- anchorage-independent growth (colony formation in soft agar) (DLD1): inhibit anchorage-independent growth
